According to patent US12258327B2, “5-membered heteroaryl-containing aminopyridine compounds as EGFR inhibitors” (YUHAN CORPORATION, priority 2021, dated 2025):
Where two headings read alike, the source gives them in different places.

Columns and labels:
[1] = biological target: EGFR L858R/C797S (Homo sapiens, UniProt P00533, C797S/L858R); test: Biochemical EGFR kinase assay (Lance Ultra TR-FRET), double mutant L858R/C797S
Summary of the method: (§1)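 In this biochemical assay, phosphorylation after a one-hour room-temperature reaction was detected with europium-labelled anti-phosphopeptide antibody at 2 nM final concentration.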

[2] = biological target: EGFR L858R/T790M/C797S (Homo sapiens, UniProt P00533, C797S/L858R/T790M); test: Biochemical EGFR kinase assay (Lance Ultra TR-FRET), triple mutant L858R/T790M/C797S
EGFR L858R/T790M/C797S, sequence (P00533 25-1210 T790M/C797S/L858R): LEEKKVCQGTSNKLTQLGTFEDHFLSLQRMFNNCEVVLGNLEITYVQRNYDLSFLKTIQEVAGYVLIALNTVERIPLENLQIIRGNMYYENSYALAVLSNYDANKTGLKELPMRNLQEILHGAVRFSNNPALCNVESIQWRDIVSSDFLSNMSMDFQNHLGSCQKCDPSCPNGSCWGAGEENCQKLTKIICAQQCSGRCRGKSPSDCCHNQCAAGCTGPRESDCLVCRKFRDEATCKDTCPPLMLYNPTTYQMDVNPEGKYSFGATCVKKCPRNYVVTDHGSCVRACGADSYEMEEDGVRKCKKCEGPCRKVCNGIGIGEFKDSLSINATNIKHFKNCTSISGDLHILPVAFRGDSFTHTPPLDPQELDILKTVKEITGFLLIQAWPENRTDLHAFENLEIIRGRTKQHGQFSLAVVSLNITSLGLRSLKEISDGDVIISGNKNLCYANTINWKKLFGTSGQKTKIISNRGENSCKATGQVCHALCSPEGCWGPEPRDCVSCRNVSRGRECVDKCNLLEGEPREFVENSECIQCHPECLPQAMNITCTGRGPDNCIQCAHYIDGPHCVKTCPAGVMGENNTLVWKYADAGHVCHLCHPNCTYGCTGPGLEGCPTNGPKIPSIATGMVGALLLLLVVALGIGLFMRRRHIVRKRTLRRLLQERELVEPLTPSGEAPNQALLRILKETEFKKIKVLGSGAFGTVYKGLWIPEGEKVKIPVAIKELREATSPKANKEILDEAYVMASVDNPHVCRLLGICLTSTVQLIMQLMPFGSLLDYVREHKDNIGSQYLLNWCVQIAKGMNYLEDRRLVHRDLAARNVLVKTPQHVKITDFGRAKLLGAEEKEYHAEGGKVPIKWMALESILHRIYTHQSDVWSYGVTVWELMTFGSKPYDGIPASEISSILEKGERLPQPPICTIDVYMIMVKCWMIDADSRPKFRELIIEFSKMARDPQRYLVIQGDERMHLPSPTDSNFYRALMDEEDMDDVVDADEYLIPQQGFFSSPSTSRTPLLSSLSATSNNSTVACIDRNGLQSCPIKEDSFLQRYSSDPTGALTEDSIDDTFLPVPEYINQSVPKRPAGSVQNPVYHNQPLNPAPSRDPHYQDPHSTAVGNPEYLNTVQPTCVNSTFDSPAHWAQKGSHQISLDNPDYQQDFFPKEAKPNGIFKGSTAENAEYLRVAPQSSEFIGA
Summary of the method: as §1

[3] = biological target: EGFR del19/C797S (Homo sapiens, UniProt P00533, C797S/DEL746-750); test: Biochemical EGFR kinase assay (Lance Ultra TR-FRET), double mutant del19/C797S
Summary of the method: as §1

[4] = biological target: EGFR del19/T790M/C797S (Homo sapiens, UniProt P00533, C797S/DEL746-750/T790M); test: Biochemical EGFR kinase assay (Lance Ultra TR-FRET), triple mutant del19/T790M/C797S
EGFR del19/T790M/C797S, sequence (P00533 with tags, fused parts or gaps DEL746-750/T790M/C797S): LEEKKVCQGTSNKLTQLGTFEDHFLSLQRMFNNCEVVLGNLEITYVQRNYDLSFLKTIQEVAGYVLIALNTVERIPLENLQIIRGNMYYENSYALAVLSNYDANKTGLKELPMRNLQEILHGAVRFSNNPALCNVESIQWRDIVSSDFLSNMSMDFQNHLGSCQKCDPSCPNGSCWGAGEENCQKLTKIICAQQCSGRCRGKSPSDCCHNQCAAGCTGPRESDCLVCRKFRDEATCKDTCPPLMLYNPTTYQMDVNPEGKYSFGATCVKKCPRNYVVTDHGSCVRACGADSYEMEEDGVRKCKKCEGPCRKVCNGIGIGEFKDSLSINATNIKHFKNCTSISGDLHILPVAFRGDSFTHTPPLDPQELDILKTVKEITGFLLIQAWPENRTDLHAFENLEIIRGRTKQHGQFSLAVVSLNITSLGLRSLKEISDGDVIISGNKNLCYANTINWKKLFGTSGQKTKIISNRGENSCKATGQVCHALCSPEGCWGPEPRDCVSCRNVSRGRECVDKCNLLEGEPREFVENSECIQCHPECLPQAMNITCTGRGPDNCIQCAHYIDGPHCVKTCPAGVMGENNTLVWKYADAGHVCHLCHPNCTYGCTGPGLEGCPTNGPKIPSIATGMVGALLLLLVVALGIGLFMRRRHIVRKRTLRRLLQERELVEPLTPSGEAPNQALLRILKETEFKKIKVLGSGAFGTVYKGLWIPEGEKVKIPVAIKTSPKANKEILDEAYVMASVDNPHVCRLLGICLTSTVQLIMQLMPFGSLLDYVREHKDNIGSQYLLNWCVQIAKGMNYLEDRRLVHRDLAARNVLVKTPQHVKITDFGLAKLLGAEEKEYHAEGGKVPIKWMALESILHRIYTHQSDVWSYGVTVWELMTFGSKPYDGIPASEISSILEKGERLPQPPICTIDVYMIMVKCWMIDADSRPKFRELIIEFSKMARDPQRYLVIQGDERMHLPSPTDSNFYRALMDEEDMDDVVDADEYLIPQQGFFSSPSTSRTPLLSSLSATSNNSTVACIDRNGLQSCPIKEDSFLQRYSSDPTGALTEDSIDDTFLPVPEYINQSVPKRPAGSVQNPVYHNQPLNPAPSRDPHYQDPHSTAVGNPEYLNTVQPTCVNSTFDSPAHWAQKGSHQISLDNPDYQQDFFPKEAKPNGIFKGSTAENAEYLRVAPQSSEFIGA
Summary of the method: as §1

[5] = biological target: EGFR wildtype (WT) (Homo sapiens, UniProt P00533); test: Biochemical EGFR kinase assay (Lance Ultra TR-FRET), wildtype
EGFR wildtype (WT), sequence (P00533 25-1210): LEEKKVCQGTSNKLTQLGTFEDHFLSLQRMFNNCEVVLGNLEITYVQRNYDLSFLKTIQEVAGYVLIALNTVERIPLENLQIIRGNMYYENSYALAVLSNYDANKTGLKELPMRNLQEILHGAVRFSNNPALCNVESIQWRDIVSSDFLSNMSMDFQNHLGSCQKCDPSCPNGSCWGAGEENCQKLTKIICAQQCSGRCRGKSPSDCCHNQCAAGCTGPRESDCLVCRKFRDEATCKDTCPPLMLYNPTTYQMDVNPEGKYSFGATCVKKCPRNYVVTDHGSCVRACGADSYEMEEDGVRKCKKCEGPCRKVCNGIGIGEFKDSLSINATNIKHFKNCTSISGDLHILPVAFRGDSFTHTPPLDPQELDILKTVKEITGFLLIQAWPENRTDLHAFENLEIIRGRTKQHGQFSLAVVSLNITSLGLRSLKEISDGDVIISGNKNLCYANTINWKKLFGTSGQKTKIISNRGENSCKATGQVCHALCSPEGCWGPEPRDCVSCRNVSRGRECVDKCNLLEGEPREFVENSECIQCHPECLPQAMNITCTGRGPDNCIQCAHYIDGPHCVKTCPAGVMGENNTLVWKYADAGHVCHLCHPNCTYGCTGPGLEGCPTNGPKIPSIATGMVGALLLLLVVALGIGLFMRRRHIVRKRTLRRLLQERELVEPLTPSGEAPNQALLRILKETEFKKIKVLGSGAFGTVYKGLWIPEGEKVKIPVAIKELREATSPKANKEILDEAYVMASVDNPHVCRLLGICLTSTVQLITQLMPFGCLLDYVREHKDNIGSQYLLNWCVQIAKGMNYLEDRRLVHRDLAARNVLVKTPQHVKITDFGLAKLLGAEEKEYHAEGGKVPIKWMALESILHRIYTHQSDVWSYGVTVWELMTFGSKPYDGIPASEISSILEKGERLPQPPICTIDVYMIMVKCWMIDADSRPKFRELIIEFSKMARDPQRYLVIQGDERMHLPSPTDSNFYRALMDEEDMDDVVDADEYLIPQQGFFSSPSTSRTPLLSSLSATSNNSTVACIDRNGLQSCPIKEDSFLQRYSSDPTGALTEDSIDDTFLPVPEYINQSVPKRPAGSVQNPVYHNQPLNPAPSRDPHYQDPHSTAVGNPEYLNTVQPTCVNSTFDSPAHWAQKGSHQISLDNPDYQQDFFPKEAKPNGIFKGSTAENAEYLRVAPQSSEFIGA
Summary of the method: as §1

[6] = IC50 L858R/C797S (nM) 100 μM ATP, 100 μM ATP
[7] = IC50 L858R/T790M/C797S (nM) 100 μM ATP, 100 μM ATP
[8] = Km ATP, read-out: IC50 L858R/T790M/C797S (nM) Km ATP
[9] = IC50 del19/C797S (nM) 100 μM ATP, 100 μM ATP
[10] = Km ATP, read-out: IC50 del19/C797S (nM) Km ATP
[11] = IC50 del19/T790M/C797S (nM) 100 μM ATP, 100 μM ATP
[12] = Km ATP, read-out: IC50 del19/T790M/C797S (nM) Km ATP
[13] = IC50 WT (nM) 100 μM ATP, 100 μM ATP
[14] = Km ATP, read-out: IC50 WT (nM) Km ATP
[15] = Km ATP, read-out: IC50 L858R/C797S (nM) Km ATP

EGFR L858R/C797S, sequence (P00533 25-1210 C797S/L858R): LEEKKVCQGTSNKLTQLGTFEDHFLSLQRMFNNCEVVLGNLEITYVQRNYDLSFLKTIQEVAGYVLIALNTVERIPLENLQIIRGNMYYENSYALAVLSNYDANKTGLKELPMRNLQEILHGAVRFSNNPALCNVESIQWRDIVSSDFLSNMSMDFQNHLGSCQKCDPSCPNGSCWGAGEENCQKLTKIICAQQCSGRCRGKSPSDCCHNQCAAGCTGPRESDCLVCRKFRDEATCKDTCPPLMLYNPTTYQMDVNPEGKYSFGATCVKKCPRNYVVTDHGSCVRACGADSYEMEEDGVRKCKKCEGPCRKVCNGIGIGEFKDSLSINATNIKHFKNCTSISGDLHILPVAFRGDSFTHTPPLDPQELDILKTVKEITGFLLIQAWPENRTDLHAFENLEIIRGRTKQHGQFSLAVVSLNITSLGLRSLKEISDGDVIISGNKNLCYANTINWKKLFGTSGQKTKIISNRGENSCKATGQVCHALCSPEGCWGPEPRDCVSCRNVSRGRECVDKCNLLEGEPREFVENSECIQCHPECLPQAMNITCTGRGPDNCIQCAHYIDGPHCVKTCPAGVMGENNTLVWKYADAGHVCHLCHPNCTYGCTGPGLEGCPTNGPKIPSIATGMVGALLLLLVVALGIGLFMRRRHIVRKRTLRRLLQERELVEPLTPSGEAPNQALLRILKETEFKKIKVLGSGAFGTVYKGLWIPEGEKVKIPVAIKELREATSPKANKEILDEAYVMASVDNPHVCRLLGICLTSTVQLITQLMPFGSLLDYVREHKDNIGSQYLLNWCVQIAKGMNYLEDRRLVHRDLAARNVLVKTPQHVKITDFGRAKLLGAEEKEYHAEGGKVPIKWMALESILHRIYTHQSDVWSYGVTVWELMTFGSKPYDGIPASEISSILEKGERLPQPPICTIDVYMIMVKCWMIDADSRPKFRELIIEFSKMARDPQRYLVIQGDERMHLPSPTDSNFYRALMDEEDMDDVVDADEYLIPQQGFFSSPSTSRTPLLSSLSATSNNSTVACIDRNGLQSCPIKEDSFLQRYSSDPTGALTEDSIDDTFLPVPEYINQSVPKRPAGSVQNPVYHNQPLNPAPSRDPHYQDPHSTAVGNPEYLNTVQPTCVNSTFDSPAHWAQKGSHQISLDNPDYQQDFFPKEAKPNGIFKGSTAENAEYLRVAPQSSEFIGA

SMILES | IC50 [1, 6] [nM] | IC50 [2, 7] [nM] | IC50 [2, 8] [nM] | IC50 [3, 9] [nM] | IC50 [3, 10] [nM] | IC50 [4, 11] [nM] | IC50 [4, 12] [nM] | IC50 [5, 13] [nM] | IC50 [5, 14] [nM] | IC50 [1, 15] [nM]
O=S(=O)(C1CC1)n1cc(-c2nccc(Nc3cc(NC[C@H]4CC[C@@H](O)CC4)c(-c4ccn(C(F)F)n4)cn3)n2)cn1 [Example 30, (1s,4s)-4-(((2-((2-(1-(Cyclopropylsulfonyl)-1H-pyrazol-4-yl)pyrimidin-4-yl)amino)-5-(1-(difluoromethyl)-1H-pyrazol-3-yl)pyridin-4-yl)amino)methyl)cyclohexan-1-ol] | 41.3 | 2.8 | 0.3 | 2.2 | 0.5 | 2.4 | 0.6 | > 10000 | 15.4 | 
O=S(=O)(C1CC1)n1cc(-c2nccc(Nc3cc(NC[C@H]4CC[C@H](O)CC4)c(-c4ccn(C(F)F)n4)cn3)n2)cn1 [Example 31, (1r,4r)-4-(((2-((2-(1-(Cyclopropylsulfonyl)-1H-pyrazol-4-yl)pyrimidin-4-yl)amino)-5-(1-(difluoromethyl)-1H-pyrazol-3-yl)pyridin-4-yl)amino)methyl)cyclohexan-1-ol] | 18.7 |  | 0.2 | 1.3 | 0.5 | 1.3 | 0.4 | > 10000 | 10.5 | 1.3
O=S(=O)(C1CC1)n1cc(-c2nccc(Nc3cc(NCC4CCCC(O)C4)c(-c4ccn(C(F)F)n4)cn3)n2)cn1 (stereo not shown) [Example 32, 3-(((2-((2-(1-(Cyclopropylsulfonyl)-1H-pyrazol-4-yl)pyrimidin-4-yl)amino)-5-(1-(difluoromethyl)-1H-pyrazol-3-yl)pyridin-4-yl)amino)methyl)cyclohexan-1-ol] | 45.2 | 2.5 | 0.2 | 2.5 | 1 | 1.6 | 0.5 | > 10000 | 18.5 | 1.9

Continued, values first:

IC50 [1, 6] [nM] | IC50 [2, 7] [nM] | IC50 [2, 8] [nM] | IC50 [3, 9] [nM] | IC50 [3, 10] [nM] | IC50 [4, 11] [nM] | IC50 [4, 12] [nM] | IC50 [5, 13] [nM] | IC50 [5, 14] [nM] | IC50 [1, 15] [nM] | SMILES
13.5 | 1.4 | 0.5 |  | 0.5 | 1 | 0.5 | > 10000 | 7 | 0.7 | O=S(=O)(C1CC1)n1cc(-c2nccc(Nc3cc(NCC4CCC(O)C4)c(-c4ccn(C(F)F)n4)cn3)n2)cn1 (stereo not shown) [Example 33, 3-(((2-((2-(1-(Cyclopropylsulfonyl)-1H-pyrazol-4-yl)pyrimidin-4-yl)amino)-5-(1-(difluoromethyl)-1H-pyrazol-3-yl)pyridin-4-yl)amino)methyl)cyclopentan-1-ol]
53.3 | 1.6 | 0.2 | 4.2 | 1.9 | 0.9 | 0.4 | > 10000 | 19.4 | 2 | O=S(=O)(C1CC1)n1cc(-c2nccc(Nc3cc(NC[C@H]4C[C@H](O)C4)c(-c4ccn(C(F)F)n4)cn3)n2)cn1 [Example 34, (1r,3r)-3-(((2-((2-(1-(Cyclopropylsulfonyl)-1H-pyrazol-4-yl)pyrimidin-4-yl)amino)-5-(1-(difluoromethyl)-1H-pyrazol-3-yl)pyridin-4-yl)amino)methyl)cyclobutan-1-ol]
57.6 | 0.9 | 0.2 | 5.4 | 5.2 | 0.3 | 0.4 | > 10000 | 32.9 | 6.5 | O=S(=O)(C1CC1)n1cc(-c2nccc(Nc3cc(NC[C@H]4C[C@@H](O)C4)c(-c4ccn(C(F)F)n4)cn3)n2)cn1 [Example 35, (1s,3s)-3-(((2-((2-(1-(Cyclopropylsulfonyl)-1H-pyrazol-4-yl)pyrimidin-4-yl)amino)-5-(1-(difluoromethyl)-1H-pyrazol-3-yl)pyridin-4-yl)amino)methyl)cyclobutan-1-ol]
33.8 | 1.2 | 0.3 | 6.8 | 5.4 | 1 | 0.8 | > 10000 | 25.1 | 3.9 | C[C@]1(O)CC[C@H](CNc2cc(Nc3ccnc(-c4cnn(S(=O)(=O)C5CC5)c4)n3)ncc2-c2ccn(C(F)F)n2)CC1 [Example 36, (1r,4r)-4-(((2-((2-(1-(Cyclopropylsulfonyl)-1H-pyrazol-4-yl)pyrimidin-4-yl)amino)-5-(1-(difluoromethyl)-1H-pyrazol-3-yl)pyridin-4-yl)amino)methyl)-1-methylcyclohexan-1-ol]
